# System: human macrophage cell-line MonoMac-6 (MM6)
# Assay: Inhibition of macrophage proliferation (MM6 cell proliferation, WST-1 reagent)
# Assay type: cell-based
# Settings: 46 hours, mean, n=5
# Protocol: Cells from the human macrophage cell-line MonoMac-6 (MM6) (Ziegler-Heitbrock et al, Int. J. Cancer, 41, 456 (1988)) were cultured (37° C./5% CO2) in RPMI-1640 medium supplemented with 1 mM sodium pyruvate, 1×nonessential amino acids, 10 μg/mL insulin, 1 mM oxalacetic acid, 100 units/mL penicillin, 100 μg/mL streptomycin and 10% (v/v) fetal bovine serum. At the start of the experiment, MM6 cells were seeded in 96-well plates at a density of 1>10^5 cells/mL (100 μL per well). Proliferation of the MM6 cells was measured using the Cell Proliferation Reagent WST-1 (Roche Diagnostics Scandinavia AB, Bromma, Sweden) or by cell counting using a microscope. The WST-1 reagent is designed to be used for spectrophotometric quantification of e.g. cell growth in proliferation assays and was used according to the manufacturers' instructions. The wavelength for measuring absorbance was 450 nm. Stock solutions of pemirolast (potassium salt; purchased from American Custom Chemicals Corporation, San Diego, USA) were made in sterile saline. Pioglitazone (HCl salt; purchased from AK Scientific, Inc., Mountain View, Calif., USA) was dissolved in DMSO and then diluted in sterile saline leading to final DMSO concentrations in the MM6 incubations of 0.003%, 0.01% and 0.03% for the final pioglitazone concentrations of 0.1 μM, 0.3 μM and 1 μM, respectively. The effects of treatment with pioglitazone (alone and in combination) on MM6 proliferation were compared with control treatments containing DMSO at concentrations corresponding to the DMSO concentrations used in the different respective pioglitazone treatments. Untreated MM6 cells increased from 1×10^5 cells/mL at the start of the experiment to 1.4×10^5±0.06×10^5 cells/mL and 2.3×10^5±0.10×10^5 cells/mL after 24 and 48 hours, respectively (mean values±sem, n=4 for each of the three time-points). Pemirolast and/or pioglitazone were added at the start of the experiments and 46 hours later the effects of the drugs on MM6 cell proliferation were studied using the WST-1 reagent described above. The WST-1 reagent was added at 44 hours after start of the experiments and the average absorbance of untreated control cells exposed to the WST-1 reagent was 0.89 (n=5).
SMILES,"MM6 proliferation, of the proliferation of untreated control cells (10 μM pemirolast) [%]","MM6 proliferation, of the proliferation of untreated control cells (30 μM pemirolast) [%]","MM6 proliferation, of the proliferation of untreated control cells (100 μM pemirolast) [%]","MM6 proliferation, of the proliferation of untreated control cells (0.1 μM pioglitazone, control with DMSO) [%]","MM6 proliferation, of the proliferation of untreated control cells (0.3 μM pioglitazone, control with DMSO) [%]","MM6 proliferation, of the proliferation of untreated control cells (1 μM pioglitazone, control with DMSO) [%]"
Cc1cccn2c(=O)c(-c3nnn[nH]3)cnc12 [pemirolast],101,124,102,–,–,–
CCc1ccc(CCOc2ccc(CC3SC(=O)NC3=O)cc2)nc1 (stereo not drawn) [pioglitazone],–,–,–,91,96,88
